# In US12378320B2, “Methods for treating pancreatitis” (Cold Spring Harbor Laboratory, priority 2018, dated 2025):
# Columns and labels:
# C57Bl/6J mice [1] = test: Cerulein model of acute pancreatitis, immune cell types by flow cytometry; type: in vivo, mouse; conditions: for immune cell type representation in the spleen or lymph nodes / immune cells in the pancreas following induction of pancreatitis: flow cytometry
# Protocol: (§1) KPC mice (Kras^+/LSL-G12D; Trp53^+/R172H; Pdx1-Cre) have been described previously (Hingorani S R, et al., Cancer Cell. 2003; 4(6):437-50; Hingorani S R, et al., Cancer Cell. 2005; 7(5):469-83) and were backcrossed onto the C57Bl/6J background (The Jackson Laboratory, strain 000664). All animal experiments were conducted in accordance with procedures approved by the IACUC at Cold Spring Harbor Laboratory. Mice were enrolled onto experimental studies between 6 and 8 weeks of age. Mice were administered Doxycycline through drinking water (0.5-2 mg/ml) supplemented with 10 mg/ml Sucrose for study durations up to one week. Doxycycline was administered through chow for experimental studies longer than one week, which is designed to deliver 2-3 mg of doxycycline per day based on the consumption of 4-5 g/day per mouse (Harlan Teklad, dietTD.01306, Doxycycline 625 mg). EdU (300 μg, Santa Cruz) was intraperitoneally administered bi-daily for three consecutive days. Cerulein was administered in 8 hourly doses of 200 μl (10 μg/ml) intraperitoneally for 48 hours and C57Bl/6J mice were allowed to recover for 24 or 72 hours. Blood glucose levels were measured using the ACCU-CHECK Nano (Roche) on the 414 lateral saphenous vein.
# Spleens and lymph nodes were mechanically dissociated, homogenized, and passed through a nylon cell strainer (BD Falcon) in FACS buffer (eBioscience). Pancreas were mechanically dissociated and digested with 0.4 mg/mL liberase, 0.05 mg/mL collagenase D, and 0.1 mg/mL DNase I (Roche) in DMEM (Gibco) supplemented with 10% FCS at 37° C. for 30 min and suspensions were passed through a nylon cell strainer.
# Staining was performed by incubating cells on a plate shaker, for 15 min at 4° C., with antibodies in FACS buffer (eBioscience). Multicolor flow cytometric analyses were performed using a LSR Fortessa cytometer (BD Biosciences). Gating strategies for all flow cytometric experiments are further described below.
# C^PDX;R^LSL;F mice = test: CA19-9 mediated pancreatitis in Dox-treated C^PDX;R^LSL;F mice (H&E, serum amylase and lipase, pEGFR IHC); type: in vivo, mouse
# Protocol: All animal experiments were conducted in accordance with procedures approved by the IACUC at Cold Spring Harbor Laboratory. Mice were enrolled onto experimental studies between 6 and 8 weeks of age. Mice were administered Doxycycline through drinking water (0.5-2 mg/ml) supplemented with 10 mg/ml Sucrose for study durations up to one week. […] EdU (300 μg, Santa Cruz) was intraperitoneally administered bi-daily for three consecutive days. Cerulein was administered in 8 hourly doses of 200 μl (10 μg/ml) intraperitoneally for 48 hours and C57Bl/6J mice were allowed to recover for 24 or 72 hours.
# Formalin-fixed, paraffin-embedded blocks were sectioned and de-paraffinized. Antigen retrieval was performed in Citrate buffer for 6 minutes in a pressure cooker unless otherwise specified. […] The slides were then rinsed in tap water and transferred to the Cadenza system. Slides were blocked in 3% BSA in TBST for one hour at room temperature and incubated in primary antibody overnight. Slides were washed three times in TBST, then incubated in horse radish peroxidase-conjugated secondary antibody for one hour at room temperature. The slides were washed three times in TBST and disassembled from the Cadenza system. ImmPACT DAB (Vector) was incubated for 1-10 minutes followed by a water wash and incubation in Hematoxylin counterstain. The slides were then dehydrated and coverslipped in cytoseal 60.
# Slides were scanned using an Aperio CS2 scanner (Leica) and the total occupied pixel area was calculated in Imagescope (Leica). Affected pancreatitis areas on H&E stained slides were manually annotated and the uninvolved and affected areas were measured. Pancreatitis areas were defined by the presence of infiltrating lymphocytes, acinar intralobular swelling, acinar to ductal metaplasia, fibrosis and fat cell replacement. The number of Ki67-positive nuclei were counted manually in five representative high-powered fields from least four animals per group.
# Amylase and Lipase levels in plasma (lithium heparin, BD biosciences) was measured by IDEXX Pathology services. CA19-9 levels were measured using the human cancer biomarker assay (EMD Millipore) on the MagPIX multiplex ELISA platform (Luminex). Blood glucose levels were measured using an Accu-Chek Nano monitor (Roche) on the lateral saphenous vein. […] The CA19-9 coated plates were washed in 0.05% Tween 20 in PBS and blocked in 1% BSA in wash buffer before incubation 10 μl of mouse plasma in a final volume of 100 μl of blocking buffer
# C57Bl/6J mice [2] = type: in vivo; conditions: Sucrose or Dox Sucrose, Vehicle or Erlotinib
# Protocol: as §1, with “EdU (300 μg, Santa Cruz) was intraperitoneally administered bi-daily for three consecutive days. Cerulein was administered in 8 hourly doses of 200 μl (10 μg/ml) intraperitoneally for 48 hours and C57Bl/6J mice were allowed to recover for 24 or 72 hours.” left out
# Amylase and Lipase levels in plasma (lithium heparin, BD biosciences) was measured by IDEXX Pathology services. CA19-9 levels were measured using the human cancer biomarker assay (EMD Millipore) on the MagPIX multiplex ELISA platform (Luminex). Blood glucose levels were measured using an Accu-Chek Nano monitor (Roche) on the lateral saphenous vein. […]
Compound,immune cell type representation in the spleen or lymph nodes (C57Bl/6J mice [1]),immune cells in the pancreas following induction of pancreatitis (C57Bl/6J mice [1]),immune cell type representation in the spleen or lymph nodes (C57Bl/6J mice [1]; listed as cerulein),immune cells in the pancreas following induction of pancreatitis (C57Bl/6J mice [1]; listed as cerulein),recruitment of T- or B-cells (C57Bl/6J mice [1]; time points examined 1-3 days),ability to substitute for anti-CA19-9 therapy (C^PDX;R^LSL;F mice; Erlotinib 24 hours prior to the induction of pancreatitis),"weight loss (C^PDX;R^LSL;F mice; Erlotinib 24 hours prior to the induction of pancreatitis, humane end point prior to study completion)",pancreatic atrophy at necropsy (C^PDX;R^LSL;F mice; Erlotinib plus Dox),vacuolization of the acinar compartment by histology (C^PDX;R^LSL;F mice; Erlotinib plus Dox),relation of the effects to Erlotinib toxicity in normal mice (C57Bl/6J mice [2])
Cerulein,without change,influx of inflammatory monocytes and macrophages,without any change,treatment-dependent influx of inflammatory monocytes and macrophages,Neither model exhibited recruitment,–,–,–,–,–
C#Cc1cccc(Nc2ncnc3cc(OCCOC)c(OCCOC)cc23)c1 [Erlotinib],–,–,–,–,–,unable to substitute,more than 20%,evident,apparent,unrelated to toxicity
